From the supplement of paper PMC10307832

Columns and labels:
Experiment in all cases: relative viability (nuclei count vs DMSO), 5 days (fraction); higher = more cells survive
[1] = compound: CC(C)(C)c1cc(NC(=O)Nc2ccc(-c3cn4c(n3)sc3cc(OCCN5CCOCC5)ccc34)cc2)no1 [Quizartinib] + CC(C)C[C@H](NC(=O)[C@H](Cc1ccccc1)NC(=O)c1cnccn1)B(O)O [Bortezomib] (partner 0.002 µM)
Method in brief: (§1)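 Lung cancer cell lines in 1536-well plates were dosed by pin tool the day after seeding, either with one drug alone or with a fixed anchor-drug dose plus five library-drug doses (not always all listed) in √10 steps. After 5 days, cells were fixed and their nuclei stained in one step (final 0.05% Triton X-100, 1% formaldehyde, 1 ug/ml Hoechst), then counted on 4× images. Relative viability is the nuclei count in treated wells divided by that in vehicle wells. Values are medians of duplicate plates.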

[2] = compound: CC(C)(C)c1cc(NC(=O)Nc2ccc(-c3cn4c(n3)sc3cc(OCCN5CCOCC5)ccc34)cc2)no1 [Quizartinib] + C[C@@H](Oc1cc(-c2cnn(C3CCNCC3)c2)cnc1N)c1c(Cl)ccc(F)c1Cl [Crizotinib] (partner 1 µM)
Method in brief: as §1

[3] = compound: COCC[n+]1c2c(n(Cc3cnccn3)c1C)C(=O)c1ccccc1C2=O [YM155] + CC(C)C[C@H](NC(=O)[C@H](Cc1ccccc1)NC(=O)c1cnccn1)B(O)O [Bortezomib] (partner 0.002 µM)
Method in brief: as §1

[4] = compound: COCC[n+]1c2c(n(Cc3cnccn3)c1C)C(=O)c1ccccc1C2=O [YM155] + NC(=O)Nc1cc(-c2cccc(F)c2)sc1C(=O)N[C@H]1CCCNC1 [AZD7762] (partner 0.2 µM)
Method in brief: as §1

| Cell Line | relative viability ([1]; first compound 0.001 µM) | relative viability ([1]; first compound 0.003162 µM) | relative viability ([1]; first compound 0.01 µM) | relative viability ([1]; first compound 0.03162 µM) | relative viability ([1]; first compound 0.1 µM) | relative viability ([2]; first compound 0.001 µM) | relative viability ([2]; first compound 0.003162 µM) | relative viability ([2]; first compound 0.01 µM) | relative viability ([2]; first compound 0.03162 µM) | relative viability ([2]; first compound 0.1 µM) | relative viability ([3]; first compound 0.002 µM) | relative viability ([3]; first compound 0.006325 µM) | relative viability ([3]; first compound 0.02 µM) | relative viability ([3]; first compound 0.06325 µM) | relative viability ([4]; first compound 0.002 µM) | relative viability ([4]; first compound 0.006325 µM) | relative viability ([4]; first compound 0.02 µM) | relative viability ([4]; first compound 0.06325 µM) |
| --- | --- | --- | --- | --- | --- | --- | --- | --- | --- | --- | --- | --- | --- | --- | --- | --- | --- | --- |
| NCI-H1703 | 0.418 | 0.269 | 0.16 | 0.18 | 0.256 | 0.791 | 0.718 | 0.219 | 0.136 | 0.335 | 0.283 | 0.323 | 0.322 | 0.198 | 0.0937 | 0.114 | 0.138 | 0.132 |
| NCI-H1734 | 0.862 | 0.769 | 1.05 | 0.776 | 0.944 | 0.582 | 0.656 | 0.854 | 0.602 | 0.549 | 1 | 0.818 | 1.04 | 0.99 | 0.489 | 0.582 | 0.614 | 0.539 |
| NCI-H1755 | 0.858 | 0.979 | 0.956 | 0.973 | 0.969 | 0.819 | 0.839 | 0.95 | 0.853 | 0.791 | 0.941 | 0.894 | 1.03 | 0.923 | 0.478 | 0.445 | 0.427 | 0.493 |
| NCI-H1792 | 0.783 | 0.947 | 1.01 | 0.793 | 0.952 | 0.743 | 0.978 | 1.04 | 0.958 | 0.995 | 0.816 | 0.97 | 0.943 | 1 | 0.613 | 0.574 | 0.648 | 0.604 |
| NCI-H1915 | 0.924 | 0.836 | 0.916 | 1.06 | 1.01 | 0.83 | 0.841 | 0.905 | 0.983 | 0.944 | 0.945 | 0.972 | 0.957 | 0.918 | 0.728 | 0.659 | 0.662 | 0.553 |
| NCI-H1975 | 0.333 | 0.374 | 0.389 | 0.368 | 0.497 | 1.02 | 0.929 | 0.922 | 0.986 | 1.09 | 0.335 | 0.43 | 0.444 | 0.272 | 0.726 | 0.734 | 0.701 | 0.439 |
| NCI-H1993 | 1.2 | 1.17 | 1.19 | 1.02 | 1.33 | 0.904 | 0.951 | 0.916 | 0.952 | 0.948 | 1.12 | 1.05 | 0.922 | 0.69 | 0.687 | 0.775 | 0.475 | 0.537 |
| NCI-H2085 | 0.981 | 0.994 | 1.1 | 0.952 | 0.982 | 0.745 | 0.795 | 0.998 | 0.833 | 0.836 | 0.949 | 0.974 | 0.83 | 0.631 | 0.928 | 0.975 | 0.979 | 0.801 |
| NCI-H2087 | 0.833 | 0.927 | 0.88 | 0.939 | 0.914 | 0.717 | 0.685 | 0.883 | 0.767 | 0.863 | 0.872 | 0.76 | 0.867 | 0.783 | 1.18 | 1.29 | 1.26 | 1.04 |
| NCI-H2126 | 0.708 | 1.06 | 1.12 | 1.14 | 1.15 | 0.816 | 0.992 | 1.12 | 0.962 | 1.07 | 1.07 | 1.13 | 1.09 | 1.16 | 0.995 | 1.04 | 1.08 | 1.05 |
| NCI-H2347 | 0.757 | 1.14 | 0.968 | 0.959 | 1.23 | 0.719 | 0.788 | 0.704 | 0.585 | 0.762 | 0.984 | 1.05 | 1.24 | 0.819 | 0.659 | 0.748 | 0.807 | 0.732 |
| NCI-H2405 | 0.689 | 1.01 | 1.01 | 1.01 | 0.984 | 0.791 | 0.89 | 0.946 | 0.803 | 0.925 | 0.951 | 1.01 | 0.971 | 0.701 | 0.609 | 0.656 | 0.578 | 0.39 |
| NCI-H3122 | 1.01 | 1 | 1.09 | 1.02 | 0.983 | 0.268 | 0.253 | 0.304 | 0.279 | 0.26 | 1 | 1.01 | 1.05 | 0.973 | 1.02 | 1.03 | 0.974 | 0.971 |
| PC-3 [JPC-3] | 0.782 | 0.822 | 0.859 | 0.791 | 0.841 | 0.978 | 0.961 | 1.01 | 0.955 | 0.955 | 0.823 | 0.94 | 0.774 | 0.904 | 0.742 | 0.872 | 0.927 | 0.697 |
| PC-14 | 0.768 | 0.846 | 0.971 | 0.826 | 0.644 | 0.839 | 0.917 | 1.07 | 0.814 | 0.818 | 0.905 | 0.861 | 0.93 | 0.771 | 0.233 | 0.343 | 0.371 | 0.363 |
| RERF-LC-KJ | 1.04 | 1.15 | 1.26 | 1.1 | 1.06 | 0.8 | 0.596 | 1 | 0.795 | 0.798 | 1.11 | 1.18 | 1.09 | 1.25 | 1.04 | 1.19 | 1.06 | 1.03 |
